Laboratory results published in patent US20240018153A1, “BENZENESULFONAMIDE DERIVATIVES AND USES THEREOF” (2692372 ONTARIO, INC., priority 2020, published 2024).

Key:
[1] = target: His-tagged BTK protein (SEQ ID NO: 1) (Homo sapiens (Human), UniProt Q06187); experiment: Intact mass analysis (LC-MS/MS) of covalent modification; assay type: binding; details: His-tagged BTK (unmodified 32,650 Da) incubated with compound
Description: The covalent modification of the proteins with the compounds were evaluated using intact mass analysis by liquid chromatography-mass spectrometry instrument (LC-MS/MS).
The reaction solution (20 μL) was prepared in 96-well plate and contained the protein (2 μM), the compound (100 μM), HEPES buffer (20 mM, pH 8), 2% DMSO, 2% glycerol, and 150 mM NaCl. The reaction was allowed to proceed for 24 h at 25° C. The reaction solution (1 μL) was injected into the LC/MS/MS without any further sample preparation.
The LC-MS/MS instrument comprises of a Waters G2-XS quadrupole-time of flight (QTof) mass spectrometer and a Waters Acuity I-class Ultra-High Performance Liquid Chromatography (UPLC) system. The I-class UPLC system includes a binary solvent manager (BSM), and a Acquity sample manager (SM). The mobile phase consisted of: A) 0.1% (v/v) formic acid in MilliQ water; B) 0.1% (v/v) formic acid acetonitrile. Gradients were run over 5 min and proceeded as follows: A:B, 85:15, 0.0-0.7 min, 85:15→15:85, 0.7-1.5 min, 10:90, 1.5-4 min, 10:90→85:15, 4-4.5 min, 85:15, 4.5-5 min. The analytical column was a Waters BEH C4 column 1.7 μm (50×1 mm) column with pore sizes of […]. The TOF MS data was collected in positive ion mode (m/z of 400-2000 Da) using MassLynx software (Waters).
The spectral deconvolution was performed using UNIFI software (Waters). The added mass of the protein upon covalent modification to cysteine residues were specified. Multiple modification of up to 8 cysteine was allowed. All the adducts with signal intensities of <2% of the base peak were ignored. The % modification was calculated as the adduct signal intensity over the total intensities of the protein peaks and the adducts.

EGFR [2] = target: T1, EGFR (Homo sapiens (Human), UniProt P00533); experiment: Time-dependent inhibition of EGFR (HTRF); assay type: biochemical; details: pre-incubation 0-60 min; for Time-dependent inhibition of EGFR: product formation versus pre-incubation time: mono-exponential decay fit
T1 sequence (P00533 25-1210): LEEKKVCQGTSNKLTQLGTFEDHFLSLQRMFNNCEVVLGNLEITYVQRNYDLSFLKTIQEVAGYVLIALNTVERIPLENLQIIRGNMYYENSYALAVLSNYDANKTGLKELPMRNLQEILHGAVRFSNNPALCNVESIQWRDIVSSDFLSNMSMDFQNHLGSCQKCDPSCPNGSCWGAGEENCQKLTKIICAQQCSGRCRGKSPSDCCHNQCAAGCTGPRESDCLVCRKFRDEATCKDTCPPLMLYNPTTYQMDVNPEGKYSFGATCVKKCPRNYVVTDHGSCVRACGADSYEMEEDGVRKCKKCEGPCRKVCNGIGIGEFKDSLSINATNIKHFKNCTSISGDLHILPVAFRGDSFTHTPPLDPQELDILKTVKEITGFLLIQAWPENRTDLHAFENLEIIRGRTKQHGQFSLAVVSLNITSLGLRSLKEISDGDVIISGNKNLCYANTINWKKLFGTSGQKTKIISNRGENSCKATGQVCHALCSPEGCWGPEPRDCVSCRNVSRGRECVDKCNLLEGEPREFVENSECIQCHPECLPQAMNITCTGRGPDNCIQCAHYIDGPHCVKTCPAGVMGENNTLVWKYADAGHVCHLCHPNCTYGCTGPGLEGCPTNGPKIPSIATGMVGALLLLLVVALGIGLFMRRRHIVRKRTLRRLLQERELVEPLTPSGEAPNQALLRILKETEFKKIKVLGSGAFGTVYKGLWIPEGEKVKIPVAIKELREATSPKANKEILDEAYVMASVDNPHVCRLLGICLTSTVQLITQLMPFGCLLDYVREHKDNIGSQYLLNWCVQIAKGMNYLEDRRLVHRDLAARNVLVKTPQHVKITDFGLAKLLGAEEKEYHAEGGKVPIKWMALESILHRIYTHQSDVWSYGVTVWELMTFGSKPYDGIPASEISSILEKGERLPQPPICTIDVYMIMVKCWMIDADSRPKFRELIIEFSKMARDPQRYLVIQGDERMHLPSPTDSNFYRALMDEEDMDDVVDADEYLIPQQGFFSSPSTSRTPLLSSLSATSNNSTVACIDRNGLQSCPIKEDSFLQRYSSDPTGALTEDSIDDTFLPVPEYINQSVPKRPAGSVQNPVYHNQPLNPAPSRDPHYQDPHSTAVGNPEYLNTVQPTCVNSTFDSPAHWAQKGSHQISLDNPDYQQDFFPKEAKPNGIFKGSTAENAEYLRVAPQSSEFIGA
Description: For the time-dependent inhibition experiments, the activity of EGFR kinase was monitored using a HTRF® KinEASE-TK kit from Cisbio (62TK0PEC) as described above. Six compounds showing higher potency during dose response analysis against EGFR, were further evaluated for their change in inhibitory potency over time. Ibrutinib was used as a positive control. The selected compounds were pre incubated with the kinase at 11 different concentrations, ranging from […] to 25 uM final compound concentrations. The pre incubation times were 0, 2, 5, 10, 15, 30, 45 and 60 min. After the preincubation, the reaction was initiated by adding biotinylated substrate and ATP and the reaction was allowed to proceed for 45 min. […] The reaction was terminated by adding 31.25 nM SA-XL665 and 100 fold diluted europium labelled antibody (Eu-Ab), diluted in 1× detection buffer that contained EDTA. After 60 min of incubation, the fluorescence emission was measured at 620 nm and 665 nm. The ratio of Em 665 nm to Em 620 nm was proportional to the amount of substrate phosphorylated by the kinase. Product formation vs pre-incubation time data were fitted to a one phase exponential decay equation using GraphPad Prism. The same product formation vs inhibitor concentration data were also fitted to a log(antagonist) vs. response—Variable slope equation in GraphPad Prism to provide IC50 values at different pre incubation times.

EGFR [3] = target: T1, EGFR; experiment: Jump dilution experiment, EGFR; assay type: biochemical; details: 1.5-h incubation, 46 nM EGFR, 10×IC50 compound, 100-fold dilution
Description: Six compounds (used at 10 times their IC50 concentrations) were pre incubated with EGFR (at 46 nM or 100-fold the normal assay concentration) for 1.5 h at room temperature. Sample containing only DMSO vehicle was used as a positive (full activity) control while sample with no enzyme was used as a negative (zero activity) control. After the preincubation, the mixture was diluted 100-fold into a reaction mixture containing 0.5 uM biotinylated substrate and 1.57 uM ATP and the reaction was allowed to proceed for various time points (2, 5, 10, 15, 30, 40, 45 and 60 min), at which the reaction was terminated by adding 1 ul of 0.5 M EDTA. 31.25 nM SA-XL665 and 100-fold diluted europium labelled antibody (Eu-Ab), diluted in 1× detection buffer, was added as detection mixture. After 60 min of incubation, the fluorescence emission was measured at 620 nm and 665 nm. The ratio of Em 665 nm to Em 620 nm was proportional to the amount of substrate phosphorylated by the kinase.

His-tagged BTK protein (SEQ ID NO: 1), sequence (Q06187 other isoform, or with tags, fused parts or gaps): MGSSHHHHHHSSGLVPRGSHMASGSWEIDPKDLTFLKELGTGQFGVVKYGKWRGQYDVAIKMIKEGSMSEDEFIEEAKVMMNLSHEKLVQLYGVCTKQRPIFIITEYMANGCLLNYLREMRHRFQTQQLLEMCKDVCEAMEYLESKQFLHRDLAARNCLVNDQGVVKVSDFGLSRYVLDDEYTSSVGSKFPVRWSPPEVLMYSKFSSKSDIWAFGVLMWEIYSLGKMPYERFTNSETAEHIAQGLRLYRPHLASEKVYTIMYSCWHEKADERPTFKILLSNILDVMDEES

SMILES	covalent adduct mass (intact mass analysis, modification by one molecule) [1]	residual activity of EGFR after jump dilution, relative to enzyme incubated with DMSO alone (EGFR [3])	Time-dependent inhibition of EGFR: product formation versus pre-incubation time (EGFR [2])	Time-dependent inhibition of EGFR: IC50 values versus pre-incubation time (EGFR [2])
C[S@+]([O-])c1c(F)c(F)c(F)c(F)c1C(=O)N1CC(n2nc(-c3ccc(Oc4ccccc4)cc3)c3c(N)ncnc32)C1 (racemic) [Compound I-37, (3-(4-amino-3-(4-phenoxyphenyl)-1H-pyrazolo[3,4-d]pyrimidin-1-yl)azetidin-1-yl)(2,3,4,5-tetrafluoro-6-(methylsulfinyl)phenyl)methanone]			concentration-dependent first order loss of enzyme activity	decrease as pre-incubation times increase
C[S+]([O-])c1c(F)c(F)c(F)c(F)c1C(=O)Nc1cc2c(Nc3ccc(F)c(Cl)c3)ncnc2cc1OC1CCOC1 (stereo not drawn) [Compound I-3]		less than 20%	concentration-dependent first order loss of enzyme activity	decrease as pre-incubation times increase
C[S+]([O-])c1c(F)c(F)c(F)c(F)c1Nc1cc2c(Nc3ccc(F)c(Cl)c3)ncnc2cc1O[C@H]1CCOC1 (stereo partly drawn) [Compound I-4, N^4-(3-chloro-4-fluorophenyl)-N^6-(2,3,4,5-tetrafluoro-6-(methylsulfinyl)phenyl)-7-(((S)-tetrahydrofuran-3-yl)oxy)quinazoline-4,6-diamine]		less than 20%	concentration-dependent first order loss of enzyme activity	decrease as pre-incubation times increase

Now from value to compound, other results behind:

covalent adduct mass (intact mass analysis, modification by one molecule) [1]	residual activity of EGFR after jump dilution, relative to enzyme incubated with DMSO alone (EGFR [3])	SMILES	Time-dependent inhibition of EGFR: product formation versus pre-incubation time (EGFR [2])	Time-dependent inhibition of EGFR: IC50 values versus pre-incubation time (EGFR [2])
33,263 Da		Nc1ncnc2c1c(-c1ccc(Oc3ccccc3)cc1)nn2[C@@H]1CCN(S(=O)(=O)c2c(F)c(F)c(F)c(F)c2OCF)C1 [Compound I-24, (R)-3-(4-phenoxyphenyl)-1-(1-((2,3,4,5-tetrafluoro-6-(fluoromethoxy)phenyl)sulfonyl)pyrrolidin-3-yl)-1H-pyrazolo[3,4-d]pyrimidin-4-amine]		
	less than 20%	CS(=O)(=O)c1c(F)c(F)c(F)c(F)c1Nc1cc2c(Nc3ccc(F)c(Cl)c3)ncnc2cc1O[C@H]1CCOC1 [Compound I-2, (S)—N^4-(3-chloro-4-fluorophenyl)-N^6-(2,3,4,5-tetrafluoro-6-(methylsulfonyl)phenyl)-7-((tetrahydrofuran-3-yl)oxy)quinazoline-4,6-diamine]	concentration-dependent first order loss of enzyme activity	decrease as pre-incubation times increase
